From patent publication US20240197712A1, “TGF-BETA INHIBITION FOR IMMUNODEFICIENCY VIRUS REACTIVATION FROM LATENCY, ENHANCEMENT OF IMMUNODEFICIENCY VIRUS-SPECIFIC RESPONSES AND IMMUNODEFICIENCY VIRUS CURE” (Northwestern University, priority 2022, published 2024)

System: pSMAD2/3
Experiment: PhosphoSMAD2/3 over total SMAD2/3 in PBMC (ELISA)
Assay type: in vivo, rhesus macaques
Conditions: 2.5 or 5 mg/kg twice daily, 9 days
Protocol: Eight naïve macaques (FIG. 9) were used to collect plasma and PBMC for PK/PD studies. 4 macaques received galunisertib (2.5 mg/kg, n=2 or 5 mg/kg, n=2) once and blood was collected at 1 hr, 3 hr and 6 hrs, 24 hrs and 48 hrs. 4 macaques received galunisertib (2.5 mg/kg, n=2 or 5 mg/kg, n=2) twice daily for 9 days and samples were collected 1 hr, 3 hr and 8 hrs after administration on day 1 and on day 9 right before and 1 hr and 3 and 6 hrs after the last administration. Plasma concentrations of galunisertib were measured by IMSERC (Integrated Molecular Structure Education and Research Center) utilizing liquid chromatography mass spectrometry (Shimadzu Kyoto, Japan ultra-high performance liquid chromatography—UHPLC—system and SCIEX Framingham, MA Qtrap 6500+ triple quadrupole mass spectrometer). […] All samples and standards were processed in duplicate with the average area under the curve (AUC) being used for quantitation reporting. […] The resulting limit of quantitation (LOQ) was 1.0 ng/ml.
For PD studies, the levels of phosphorylated SMAD2/3 were measured using the PathScan PhospoSMAD2/3 ELISA kit (Cell Signaling Technology, CST) over the levels of Total SMAD2/3 in cell lysates Total SMAD ELISA Kit (Cell Signaling Technology, CST) normalized on protein content.

Cc1cccc(-c2nn3c(c2-c2ccnc4ccc(C(N)=O)cc24)CCC3)n1 [galunisertib, Galunisertib]
reduction in pSMAD2/3 over total SMAD in PBMC: ~25%
